From ChEMBL document CHEMBL4627326, “Discovery of 4-hydroxy-2-oxo-1,2-dihydroquinolines as potential inhibitors of Streptococcus pneumoniae, including drug-resistant strains” (Bioorg Med Chem Lett, 2020) come the findings set out here.

The test system of data set [1] is Streptococcus pneumoniae. Briefly: Antibacterial activity against Streptococcus pneumoniae ATCC 49617. The format is functional, organism-based.
Data set [2] relates to Streptococcus pneumoniae. Kind of data set: Antibacterial activity against Streptococcus pneumoniae ATCC BAA1663. Format: functional, organism-based.
Data set [3] has as its system Streptococcus pneumoniae. Briefly: Antibacterial activity against Streptococcus pneumoniae ATCC 700904. The format is functional, organism-based.
Data set [4] is described as follows: Half life in rat at 2 mg/kg, iv. The format is ADME, organism-based. To be noted: in vivo.
Data set [5] in a line: AUC in rat at 2 mg/kg, iv. The format is ADME, organism-based. To be noted: in vivo.
The nature of data set [6]: Clearance in rat at 2 mg/kg, iv. Format: ADME, organism-based. The settings on record: in vivo.
Data set [7] is described as follows: Volume of distribution at steady state in rat at 2 mg/kg, iv. Format: ADME, organism-based. To be noted: in vivo, read-out: Vdss.
The nature of data set [8]: Tmax in rat at 10 mg/kg, po. The format is ADME, organism-based. The settings on record: in vivo.
The nature of data set [9]: Cmax in rat at 10 mg/kg, po. Format: ADME, organism-based. Also on record: dose 10 mg/kg, route oral. The settings on record: in vivo.
Data set [10] can be described thus: Half life in rat at 10 mg/kg, po. The settings on record: in vivo. Format: ADME, organism-based.
A short description of data set [11]: AUC in rat at 10 mg/kg, po. The format is ADME, organism-based. The settings on record: in vivo.
Data set [12] can be described thus: Oral bioavailability in rat at 10 mg/kg. Format: ADME, organism-based. The settings on record: in vivo.
The nature of data set [13]: Solubility of compound at 1 mg/ml incubated for 24 hrs by LC/MS analysis. Format: physicochemical.
Data set [14] in a line: Protein binding in rat plasma. The format is ADME, cell-free. To be noted: read-out: PPB (converted).
Data set [15] can be described thus: Protein binding in human plasma. The format is ADME, cell-free. To be noted: read-out: PPB (converted).
Where [16] appears, read: Streptococcus pneumoniae, ATCC 700904, read-out: IC50.

≈ marks a conversion by molar mass, not a printed value.

With `O=C(Nc1nccs1)c1c(O)c2cccc3c2n(c1=O)CCC3`, the IC50 in data set [1], in [2] and in data set [3] (setting [16]) was greater than 20 µM in each case.
On to `CCn1c(=O)c(C(=O)Nc2nc3ccccc3[nH]2)c(O)c2ccccc21`, for which the IC50 in data set [1] stood at 6.4 µM; in [2] it was 5.4 µM; in [3] (setting [16]), 3.8 µM.
Turning to `CCCCn1c(=O)c(C(=O)Nc2nc3ccccc3[nH]2)c(O)c2ccccc21`, the IC50 in data set [1] is 0.92 µM; in data set [2], 1.8 µM; in [3] (setting [16]), 0.8 µM. Also, the half-life is 1130 min in data set [4] and 240 min in data set [10]. Moreover, the AUC is 6990 ng·h/mL in data set [5] and 12400 ng·h/mL in [11]. This compound had a clearance in data set [6] of 3 mL/min/kg. Moreover, in data set [7], the Vd was 4.76 L/kg. Further, the Tmax in data set [8] was found to be 6 h. This compound also came in with a Cmax in [9] of 1.2 µg/mL. Also, the bioavailability in data set [12] was determined as 35%.
On to `O=C(Nc1nc2ccccc2[nH]1)c1c(O)c2cccc3c2n(c1=O)CC3`, for which the 50% inhibitory concentration (IC50) stood at 2 µM in [1], 2.1 µM in data set [2] and 3.3 µM in data set [3] (setting [16]). The half-life in data set [4] was 462 min; in data set [10], 432 min. In addition, the AUC in data set [5] turned out to be 25700 ng·h/mL; in data set [11], 21400 ng·h/mL. Moreover, the clearance in data set [6] was 1.17 mL/min/kg. In data set [7], the Vd amounted to 0.84 L/kg. Besides, the Tmax in [8] is 2.7 h. For the same compound, the highest level in [9] (Cmax) was 2.7 µg/mL. Moreover, the bioavailability in data set [12] was 17%.
Turning to `C=CCn1c(=O)c(C(=O)Nc2nccs2)c(O)c2ccccc21`, the IC50 in data set [1] is 4.1 µM; in data set [2], 4.5 µM; in data set [3] (setting [16]), 4.2 µM.
On the same counts, the results for `CCn1c(=O)c(C(=O)Nc2nccs2)c(O)c2ccccc21` are greater than 20 µM, 6.6 µM and 6.2 µM.
With `O=C(Nc1nc2ccccc2[nH]1)c1c(O)c2cccc3c2n(c1=O)CCC3`, the IC50 amounted to 6.5 µM in data set [1], 5.2 µM in [2] and 6.4 µM in data set [3] (setting [16]).
In the case of `O=C(Nc1nc2ccc(Cl)cc2s1)c1c(O)c2cccc3c2n(c1=O)CC3`, the concentration for half-maximal inhibition (IC50) in data set [1] was 0.27 µM; in data set [2] it was 1.03 µM; in data set [3] (setting [16]) it was 0.62 µM. In addition, the solubility at 24 h in [13] worked out at 0.195 µg/mL (≈ 0.49 µM). Besides, the values for the fraction unbound in data set [14] and in data set [15] were 0.016 and 0.006, respectively.
Take `CCCCn1c(=O)c(C(=O)Nc2nccs2)c(O)c2ccccc21`: the IC50 amounted to 0.57 µM in data set [1], 0.75 µM in data set [2] and 0.77 µM in [3] (setting [16]).
The like results for `C=CCn1c(=O)c(C(=O)Nc2nc3ccccc3[nH]2)c(O)c2ccccc21` were, in that order, 4.9 µM, greater than 20 µM and greater than 20 µM.
For `Cn1c(=O)c(C(=O)Nc2nc3ccccc3[nH]2)c(O)c2ccccc21`, the IC50 in [1], in [2] and in [3] (setting [16]) was greater than 20 µM throughout.
In the case of `Cc1nnc(NC(=O)c2c(O)c3cccc4c3n(c2=O)CC4)s1`, the IC50 in [1] worked out at 2.2 µM; in [2], 2.7 µM; in [3] (setting [16]), 1.7 µM.
Take `CCCCn1c(=O)c(C(=O)Nc2nc3ccc(Cl)cc3s2)c(O)c2ccccc21`: the results for the IC50 in data set [1], in data set [2] and in data set [3] (setting [16]) were 1 µM, 0.66 µM and 0.38 µM, respectively.
The like results for `O=C(Nc1nc2ccc(Cl)cc2s1)c1c(O)c2ccccc2[nH]c1=O` were, in that order, 13.1 µM, greater than 20 µM and greater than 20 µM.
As to `O=C(Nc1nc2ccc(Cl)cc2s1)c1c(O)c2cccc3c2n(c1=O)CCC3`, the 50% inhibitory concentration (IC50) in data set [1], in [2] and in data set [3] (setting [16]) was greater than 20 µM each time.
As for `O=C(Nc1nc2ccccc2s1)c1c(O)c2cccc3c2n(c1=O)CC3`, the IC50 in [1] worked out at 3.6 µM; in [2] it was 8.8 µM; in [3] (setting [16]) it was 7.9 µM.
The like results for `O=C(Nc1nccs1)c1c(O)c2cccc3c2n(c1=O)CC3` were, in that order, 17.6 µM, 16 µM and greater than 20 µM.
Regarding `Cn1c(=O)c(C(=O)Nc2nccs2)c(O)c2ccccc21`, the IC50 in [1], in [2] and in data set [3] (setting [16]) was greater than 20 µM in each case.
In the case of `C=CCn1c(=O)c(C(=O)Nc2nc3ccc(Cl)cc3s2)c(O)c2ccccc21`, the IC50 was greater than 20 µM in data set [1], 3.1 µM in data set [2] and 3.1 µM in data set [3] (setting [16]).
Consider `CCn1c(=O)c(C(=O)Nc2nc3ccc(Cl)cc3s2)c(O)c2ccccc21`, for which the IC50 in data set [1] was 5.9 µM; in data set [2], greater than 20 µM; in [3] (setting [16]) it was greater than 20 µM.
As for `CC[C@H]1OC(=O)[C@H](C)[C@@H](O[C@H]2C[C@@](C)(OC)[C@@H](O)[C@H](C)O2)[C@H](C)[C@@H](O[C@@H]2O[C@H](C)C[C@H](N(C)C)[C@H]2O)[C@](C)(O)C[C@@H](C)C(=O)[C@H](C)[C@@H](O)[C@]1(C)O` [ERYTHROMYCIN], the IC50 is 0.051 to 0.1 µM in [1], 0.037 to 0.08 µM in data set [2] and “Not Active” in data set [3].
`CN[C@H](CC(C)C)C(=O)N[C@H]1C(=O)N[C@@H](CC(N)=O)C(=O)N[C@H]2C(=O)N[C@H]3C(=O)N[C@H](C(=O)N[C@H](C(=O)O)c4cc(O)cc(O)c4-c4cc3ccc4O)[C@H](O)c3ccc(c(Cl)c3)Oc3cc2cc(c3O[C@@H]2O[C@H](CO)[C@@H](O)[C@H](O)[C@H]2O[C@H]2C[C@](C)(N)[C@H](O)[C@H](C)O2)Oc2ccc(cc2Cl)[C@H]1O` [VANCOMYCIN]: the results for the IC50 in data set [1], in data set [2] and in [3] (setting [16]) were 0.15 to 0.18 µM, 0.13 to 0.19 µM and 0.12 to 0.19 µM, respectively.
